In patent publication US10011571B2, “Preparation method for aromatic heterocyclic compound used as selective JAK3 and/or JAK1 kinase inhibitor and application of aromatic heterocyclic compound” (SHENZHEN CHIPSCREEN BIOSCIENCES, LTD., priority 2014, dated 2018) one finds IC50 data, which are given here for two compounds.

This test concerns IL-4/JAK1 & 3/STAT6 (THP-1). Description: Intracellular activity assay, IL-4 induced STAT6 phosphorylation in THP-1. Type of test: cell-based. Conditions: Homo sapiens; inhibition of STAT6 phosphorylation, THP-1, IL-4 10 ng/mL. From the text:
In this experiment, western blot (WB) and flow cytometry are used to evaluate the intracellular activities of the test compounds by comparing the relative levels of the signals of phosphorylated and non-phosphorylated STATs in 5 cell models, including U937, THP-1, CTLL-2, UT-7/EPO and activated human periphery blood cell (hPBC). The primary antibody and secondary antibody used in WB hybridization in this experiment are purchased from Cell Signaling Company (http://www.cellsignal.com). The fluorescence-labeled antibodies used in flow cytometry are purchased from eBiosciences Company (http://www.ebioscience.com).
THP-1 is a monocytic cell line. […] The intracellular inhibitory activity of the compounds on JAK1/3 can be evaluated by detecting the change of the phosphorylation level of STAT6. […]
(2) Protein extraction and WB detection: after extraction, the protein content is determined. […]
(3) Signal detection: the hybridization signal is detected by X-ray imaging. The grey scale signal obtained by scanning is converted to digital signal, and the signal intensities for both phosphorylated STATs and STATs are each calculated to evaluate the phosphorylation inhibitory activities of the compounds on STATs. […]
(2) Cell fixation and fluorescence labeling: the cells are fixed using paraformaldehyde (30 min), and subsequently treated for membrane permeability in chilled methanol (15 min). […]

Molecules are shown by their SMILES.

One may read the IC50 as the concentration needed to halve the response being measured. High values mean a need for much substance, low ones inhibition by little substance. `C=CC(=O)N(C)c1cc(Nc2ncc(Cl)c(NCCCNC(=O)c3ccc(C#N)cc3)n2)ccc1F` [Example 7, N-(3-(5-chloro-2-(4-fluoro-3-(N-methylacrylamido)phenylamino)pyrimidinyl-4-amino)propyl)-4-cyano-benzamide] came in with an IC50 of 1.69 µM.
The compound `C=CC(=O)N(C)c1cc(Nc2ncc(Cl)c(NCCCNC(=O)c3ccc(F)cc3)n2)ccc1F` [Example 23, N-(3-(5-chloro-2-(4-fluoro-3-(N-methylacrylamido)phenylamino)pyrimidinyl-4-amino)propyl)-4-fluorobenzamide] came in with an IC50 of 1.73 µM. This IC50 and that of the compound before are within 1.5-fold of each other.
